US6589962B1, “Alpha-hydroxy-gamma-[[(carbocyclic-or heterocyclic-substituted)amino]carbonyl]alkanamide derivatives and uses thereof” (priority 1999, dated 2003)

Test system: HIV-1 viral constructs Q60, K-60, and V-18
Assay: Cell spread assay (HIV-1 p24 accumulation in MT-4 T-lymphoid cells), mutant viral constructs
Assay type: cell-based
Conditions: one range stated for the three mutant viral constructs together; MT-4 cells, 4 days postinfection
Protocol: Inhibition of the spread of HIV in cell culture was measured according to Nunberg et al., J. Virol. […] In this assay, MT-4 T-lymphoid cells were infected with HIV-1 (wild-type, unless otherwise indicated) by using a predetermined inoculum, and cultures were incubated for 24 h. At this time, ≦1% of the cells were positive by indirect immunofluorescence. Cells were then extensively washed and distributed into 96-well culture dishes. Serial twofold dilutions of inhibitor were added to the wells, and cultures were continued for 3 additional days. At 4 days postinfection, 100% of the cells in control cultures were infected. HIV-1 p24 accumulation was directly correlated with virus spread. The cell culture inhibitory concentration was defined as the inhibitor concentration in nanomoles/liter which reduced the spread of infection by at least 95%, or CIC95.

## CC(C)(C)NC(=O)[C@@H]1CN(Cc2cccnc2)CCN1C[C@@H](O)C[C@@H](Cc1ccccc1)C(=O)N[C@H]1c2ccccc2C[C@H]1O [indinavir, N-(2(R)-hydroxy-1(S)-indanyl)-2(R)-phenylmethyl-4-(S)-hydroxy-5-(1-(4-(3-pyridyl-methyl)-2(S)-N′-(t-butylcarboxamido)-piperazinyl))-pentaneamide]
  CIC95 against the viral constructs Q60, K-60, and V-18: greater than 1000 nM
